# Assay results reported in patent US11725011B2, “Bicyclic urea kinase inhibitors and uses thereof” (The Broad Institute, Inc., priority 2016, dated 2023).
# Experiments:
# Assay in all cases: KINOMEscan
# Format in all cases: binding
# Conditions in all cases: 1 uM
# [1] = biological target: ABL1 (E255K)-phosphorylated (Homo sapiens (Human), UniProt P00519, E255K)
# [2] = biological target: CAMK1G (Homo sapiens (Human), UniProt Q96NX5)
# [3] = biological target: CAMK2D (Homo sapiens (Human), UniProt Q13557)
# [4] = biological target: CAMK4 (Homo sapiens (Human), UniProt Q16566)
# [5] = biological target: CDK11 (Homo sapiens (Human), UniProt Q9BWU1)
# [6] = biological target: CDK3 (Homo sapiens (Human), UniProt Q00526)
# [7] = biological target: CLK2 (Homo sapiens (Human), UniProt P49760)
# [8] = biological target: CLK3 (Homo sapiens (Human), UniProt P49761)
# [9] = biological target: DCAMKL3 (Homo sapiens (Human), UniProt Q9C098)
# [10] = biological target: DMPK (Homo sapiens (Human), UniProt Q09013)
# [11] = biological target: DMPK2 (Homo sapiens (Human), UniProt Q6DT37)
# [12] = biological target: EGFR (L747-E749del, A750P) (Homo sapiens (Human), UniProt P00533, A750P/DEL747-749)
# [13] = biological target: EGFR (T790M) (Homo sapiens (Human), UniProt P00533, T790M)
# [14] = biological target: ERK5 (Homo sapiens (Human), UniProt Q13164)
# [15] = biological target: FYN (Homo sapiens (Human), UniProt P06241)
# [16] = biological target: HCK (Homo sapiens (Human), UniProt P08631)
# [17] = biological target: JAK2 (JH1domain-catalytic) (Homo sapiens (Human), UniProt O60674)
# [18] = biological target: JNK3 (Homo sapiens (Human), UniProt P53779)
# [19] = biological target: MAP4K4 (Homo sapiens (Human), UniProt O95819)
# [20] = biological target: MEK2 (Homo sapiens (Human), UniProt P36507)
# [21] = biological target: MEK4 (Homo sapiens (Human), UniProt P45985)
# [22] = biological target: MELK (Homo sapiens (Human), UniProt Q14680)
# [23] = biological target: NIK (Homo sapiens (Human), UniProt Q99558)
# [24] = biological target: NIM1 (Homo sapiens (Human), UniProt Q8IY84)
# [25] = biological target: PIK3C2B (Homo sapiens (Human), UniProt O00750)
# [26] = biological target: PRKD3 (Homo sapiens (Human), UniProt O94806)
# [27] = biological target: RET (M918T) (Homo sapiens (Human), UniProt P07949, M918T)
# [28] = biological target: RPS6KA4 (Kin.Dom.1-N-terminal) (Homo sapiens (Human), UniProt O75676)
# [29] = biological target: RPS6KA5 (Kin.Dom.1-N-terminal) (Homo sapiens (Human), UniProt O75582)
# [30] = biological target: RSK3 (Kin.Dom.1-N-terminal) (Homo sapiens (Human), UniProt Q15349)
# [31] = biological target: SGK2 (Homo sapiens (Human), UniProt Q9HBY8)
# [32] = biological target: SLK (Homo sapiens (Human), UniProt Q9H2G2)
# [33] = biological target: SRPK1 (Homo sapiens (Human), UniProt Q96SB4)
# [34] = biological target: STK39 (Homo sapiens (Human), UniProt Q9UEW8)
# [35] = biological target: TBK1 (Homo sapiens (Human), UniProt Q9UHD2)
# [36] = biological target: TNK2 (Homo sapiens (Human), UniProt Q07912)
# [37] = biological target: TRKB (Homo sapiens (Human), UniProt Q16620)
# [38] = biological target: TXK (Homo sapiens (Human), UniProt P42681)
# [39] = biological target: WEE1 (Homo sapiens (Human), UniProt P30291)
# [40] = biological target: ZAP70 (Homo sapiens (Human), UniProt P43403)
# ERK5, sequence (Q13164 whole entry): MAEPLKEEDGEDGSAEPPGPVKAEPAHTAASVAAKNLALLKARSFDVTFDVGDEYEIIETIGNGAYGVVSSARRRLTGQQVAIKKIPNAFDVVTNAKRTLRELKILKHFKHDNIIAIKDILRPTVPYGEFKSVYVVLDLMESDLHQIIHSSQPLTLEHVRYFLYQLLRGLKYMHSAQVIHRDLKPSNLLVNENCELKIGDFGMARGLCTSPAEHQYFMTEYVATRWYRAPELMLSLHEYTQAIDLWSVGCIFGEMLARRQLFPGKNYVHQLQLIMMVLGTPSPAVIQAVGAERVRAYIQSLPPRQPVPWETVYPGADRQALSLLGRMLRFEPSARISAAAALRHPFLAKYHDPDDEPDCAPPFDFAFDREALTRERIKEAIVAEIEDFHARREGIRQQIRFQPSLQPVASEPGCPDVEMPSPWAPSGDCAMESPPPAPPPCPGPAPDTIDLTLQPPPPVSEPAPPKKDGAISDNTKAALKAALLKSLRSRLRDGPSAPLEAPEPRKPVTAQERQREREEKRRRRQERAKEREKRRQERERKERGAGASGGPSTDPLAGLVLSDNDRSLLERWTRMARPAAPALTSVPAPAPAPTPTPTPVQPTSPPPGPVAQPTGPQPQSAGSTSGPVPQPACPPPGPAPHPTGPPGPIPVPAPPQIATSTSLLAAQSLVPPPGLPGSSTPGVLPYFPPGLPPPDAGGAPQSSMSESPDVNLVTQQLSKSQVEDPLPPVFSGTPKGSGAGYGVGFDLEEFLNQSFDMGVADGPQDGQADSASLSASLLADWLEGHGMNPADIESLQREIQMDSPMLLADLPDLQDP
# CLK2, sequence (P49760 whole entry): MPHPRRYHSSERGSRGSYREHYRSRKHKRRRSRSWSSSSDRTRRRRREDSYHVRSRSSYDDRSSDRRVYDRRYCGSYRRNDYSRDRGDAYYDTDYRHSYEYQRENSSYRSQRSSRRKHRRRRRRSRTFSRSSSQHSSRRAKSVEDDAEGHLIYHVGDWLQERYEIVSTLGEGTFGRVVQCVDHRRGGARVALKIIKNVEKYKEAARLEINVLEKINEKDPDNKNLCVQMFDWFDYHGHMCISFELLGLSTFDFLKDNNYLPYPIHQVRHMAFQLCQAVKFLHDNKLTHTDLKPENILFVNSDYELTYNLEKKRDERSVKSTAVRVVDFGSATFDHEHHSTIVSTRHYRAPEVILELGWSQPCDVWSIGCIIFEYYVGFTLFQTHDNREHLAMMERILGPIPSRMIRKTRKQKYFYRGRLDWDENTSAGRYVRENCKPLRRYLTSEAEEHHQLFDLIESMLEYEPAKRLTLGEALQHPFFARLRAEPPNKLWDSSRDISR
# JAK2 (JH1domain-catalytic), sequence (O60674 849-1124): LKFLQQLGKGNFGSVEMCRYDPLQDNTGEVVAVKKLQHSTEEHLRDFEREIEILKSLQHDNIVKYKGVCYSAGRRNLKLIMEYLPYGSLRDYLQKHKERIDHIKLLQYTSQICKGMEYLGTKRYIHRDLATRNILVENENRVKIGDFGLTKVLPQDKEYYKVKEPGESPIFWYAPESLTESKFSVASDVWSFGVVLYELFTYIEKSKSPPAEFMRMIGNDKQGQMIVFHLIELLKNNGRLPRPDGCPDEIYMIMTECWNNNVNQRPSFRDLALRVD
# HCK, sequence (P08631 whole entry): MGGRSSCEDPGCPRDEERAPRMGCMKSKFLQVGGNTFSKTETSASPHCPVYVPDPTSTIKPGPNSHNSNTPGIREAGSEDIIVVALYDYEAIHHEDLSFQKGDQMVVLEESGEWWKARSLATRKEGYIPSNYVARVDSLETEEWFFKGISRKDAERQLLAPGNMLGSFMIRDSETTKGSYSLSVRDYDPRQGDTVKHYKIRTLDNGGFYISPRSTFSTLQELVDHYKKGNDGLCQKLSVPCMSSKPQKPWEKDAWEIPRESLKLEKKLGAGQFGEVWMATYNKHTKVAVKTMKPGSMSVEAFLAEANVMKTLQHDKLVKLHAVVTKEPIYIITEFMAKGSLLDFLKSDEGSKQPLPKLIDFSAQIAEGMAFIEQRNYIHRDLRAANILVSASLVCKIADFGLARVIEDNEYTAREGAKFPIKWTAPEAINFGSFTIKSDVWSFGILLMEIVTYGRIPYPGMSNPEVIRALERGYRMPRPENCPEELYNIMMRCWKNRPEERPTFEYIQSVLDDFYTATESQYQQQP
# SGK2, sequence (Q9HBY8 whole entry): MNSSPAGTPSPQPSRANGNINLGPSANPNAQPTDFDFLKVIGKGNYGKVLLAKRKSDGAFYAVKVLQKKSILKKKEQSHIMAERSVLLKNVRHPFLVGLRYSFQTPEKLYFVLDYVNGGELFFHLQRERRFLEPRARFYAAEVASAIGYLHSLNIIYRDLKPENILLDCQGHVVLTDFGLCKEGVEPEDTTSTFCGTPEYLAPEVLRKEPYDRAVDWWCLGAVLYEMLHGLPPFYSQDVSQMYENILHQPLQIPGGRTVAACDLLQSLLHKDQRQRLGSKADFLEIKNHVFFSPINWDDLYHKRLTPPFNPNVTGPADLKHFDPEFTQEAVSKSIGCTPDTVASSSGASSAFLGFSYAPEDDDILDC
# EGFR (T790M), sequence (P00533 25-1210 T790M): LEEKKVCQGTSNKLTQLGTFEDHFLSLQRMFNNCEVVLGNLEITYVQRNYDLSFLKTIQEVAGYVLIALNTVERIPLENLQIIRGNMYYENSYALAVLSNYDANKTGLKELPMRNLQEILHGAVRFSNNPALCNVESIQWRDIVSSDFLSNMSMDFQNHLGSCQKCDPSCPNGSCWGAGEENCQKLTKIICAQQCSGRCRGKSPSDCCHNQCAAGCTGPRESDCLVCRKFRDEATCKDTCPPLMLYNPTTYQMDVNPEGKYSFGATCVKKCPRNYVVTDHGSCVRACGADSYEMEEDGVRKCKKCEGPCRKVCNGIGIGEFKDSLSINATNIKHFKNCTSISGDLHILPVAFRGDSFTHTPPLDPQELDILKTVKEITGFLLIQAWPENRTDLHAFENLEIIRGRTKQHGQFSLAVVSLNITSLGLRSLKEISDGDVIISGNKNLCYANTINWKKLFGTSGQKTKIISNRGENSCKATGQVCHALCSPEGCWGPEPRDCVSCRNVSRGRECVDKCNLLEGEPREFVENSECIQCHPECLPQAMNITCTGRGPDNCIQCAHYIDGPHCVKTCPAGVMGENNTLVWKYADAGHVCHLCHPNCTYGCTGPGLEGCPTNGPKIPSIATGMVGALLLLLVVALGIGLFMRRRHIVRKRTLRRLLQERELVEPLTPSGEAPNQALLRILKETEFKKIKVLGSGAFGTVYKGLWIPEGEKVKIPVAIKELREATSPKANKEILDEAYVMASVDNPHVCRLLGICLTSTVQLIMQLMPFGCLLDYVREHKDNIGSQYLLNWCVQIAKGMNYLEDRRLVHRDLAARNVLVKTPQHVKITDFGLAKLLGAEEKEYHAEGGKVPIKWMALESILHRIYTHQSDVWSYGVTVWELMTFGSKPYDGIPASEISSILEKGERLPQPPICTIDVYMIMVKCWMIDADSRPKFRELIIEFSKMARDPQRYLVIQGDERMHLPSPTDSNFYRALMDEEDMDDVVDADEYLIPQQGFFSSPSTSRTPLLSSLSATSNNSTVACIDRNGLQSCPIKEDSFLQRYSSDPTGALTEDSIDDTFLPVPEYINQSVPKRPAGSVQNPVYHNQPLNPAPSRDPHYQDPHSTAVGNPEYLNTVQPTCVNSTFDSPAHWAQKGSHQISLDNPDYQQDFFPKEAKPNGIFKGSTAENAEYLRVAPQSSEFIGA
# CDK3, sequence (Q00526 whole entry): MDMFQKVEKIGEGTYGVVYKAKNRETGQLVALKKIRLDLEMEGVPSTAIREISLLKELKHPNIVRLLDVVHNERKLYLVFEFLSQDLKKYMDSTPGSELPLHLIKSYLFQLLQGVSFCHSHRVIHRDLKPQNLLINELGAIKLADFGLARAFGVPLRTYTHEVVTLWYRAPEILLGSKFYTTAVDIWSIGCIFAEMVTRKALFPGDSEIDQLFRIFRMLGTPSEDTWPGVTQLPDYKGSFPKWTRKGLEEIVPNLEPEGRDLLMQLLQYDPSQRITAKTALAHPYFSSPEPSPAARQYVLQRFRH
# MELK, sequence (Q14680 whole entry): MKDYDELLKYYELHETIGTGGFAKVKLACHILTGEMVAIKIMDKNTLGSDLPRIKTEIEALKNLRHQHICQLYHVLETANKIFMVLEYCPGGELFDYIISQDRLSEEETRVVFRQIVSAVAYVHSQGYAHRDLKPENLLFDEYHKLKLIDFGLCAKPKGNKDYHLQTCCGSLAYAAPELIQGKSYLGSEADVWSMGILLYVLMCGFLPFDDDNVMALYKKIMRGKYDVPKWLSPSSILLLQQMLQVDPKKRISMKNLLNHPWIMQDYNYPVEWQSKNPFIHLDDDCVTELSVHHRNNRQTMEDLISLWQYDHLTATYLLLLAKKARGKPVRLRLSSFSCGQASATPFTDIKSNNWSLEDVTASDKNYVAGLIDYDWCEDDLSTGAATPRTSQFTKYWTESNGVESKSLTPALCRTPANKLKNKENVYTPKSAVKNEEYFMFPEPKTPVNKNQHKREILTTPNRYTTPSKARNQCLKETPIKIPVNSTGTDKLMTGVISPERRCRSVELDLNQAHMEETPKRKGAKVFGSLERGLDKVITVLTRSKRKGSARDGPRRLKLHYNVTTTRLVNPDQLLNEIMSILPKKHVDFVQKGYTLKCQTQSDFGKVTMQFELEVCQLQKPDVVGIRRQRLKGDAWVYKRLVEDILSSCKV
# RPS6KA5 (Kin.Dom.1-N-terminal), sequence (O75582 49-318): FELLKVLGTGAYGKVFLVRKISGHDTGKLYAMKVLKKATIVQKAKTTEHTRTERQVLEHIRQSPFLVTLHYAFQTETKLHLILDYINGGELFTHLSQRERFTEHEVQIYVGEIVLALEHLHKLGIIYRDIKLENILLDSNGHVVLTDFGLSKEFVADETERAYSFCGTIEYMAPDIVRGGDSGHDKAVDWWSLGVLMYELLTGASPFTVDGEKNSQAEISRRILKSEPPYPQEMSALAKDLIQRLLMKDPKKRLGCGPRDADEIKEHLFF
smiles,measurement,setting,value
COc1ccc(N2C(=O)N(c3c(C)cccc3C)Cc3cnc(Nc4ccc(N5CCN(C)CC5)cc4)nc32)c(OC)c1 [HG-11-136-01],KINOMEscan ABL1 (E255K)-phosphorylated,[1],0.4
same,KINOMEscan CAMK1G,[2],95
same,KINOMEscan CAMK2D,[3],100
same,KINOMEscan CAMK4,[4],100
same,KINOMEscan CDK11,[5],89
same,KINOMEscan CDK3,[6],100
same,KINOMEscan CLK2,[7],35
same,KINOMEscan CLK3,[8],78
same,KINOMEscan DCAMKL3,[9],77
same,KINOMEscan DMPK,[10],88
same,KINOMEscan DMPK2,[11],1.6
same,"KINOMEscan EGFR (L747-E749del, A750P)",[12],0.35
same,KINOMEscan EGFR (T790M),[13],0.7
same,KINOMEscan ERK5,[14],84
same,KINOMEscan FYN,[15],0.35
same,KINOMEscan HCK,[16],0.05
same,KINOMEscan JAK2 (JH1domain-catalytic),[17],0.75
same,KINOMEscan JNK3,[18],32
same,KINOMEscan MAP4K4,[19],17
same,KINOMEscan MEK2,[20],0.2
same,KINOMEscan MEK4,[21],48
same,KINOMEscan MELK,[22],36
same,KINOMEscan NIK,[23],36
same,KINOMEscan NIM1,[24],42
same,KINOMEscan PIK3C2B,[25],0.55
same,KINOMEscan PRKD3,[26],5.4
same,KINOMEscan RET (M918T),[27],0.05
same,KINOMEscan RPS6KA4 (Kin.Dom.1-N-terminal),[28],79
same,KINOMEscan RPS6KA5 (Kin.Dom.1-N-terminal),[29],100
same,KINOMEscan RSK3 (Kin.Dom.1-N-terminal),[30],40
same,KINOMEscan SGK2,[31],76
same,KINOMEscan SLK,[32],0.1
same,KINOMEscan SRPK1,[33],16
same,KINOMEscan STK39,[34],28
same,KINOMEscan TBK1,[35],37
same,KINOMEscan TNK2,[36],0.15
same,KINOMEscan TRKB,[37],63
same,KINOMEscan TXK,[38],0.25
same,KINOMEscan WEE1,[39],69
same,KINOMEscan ZAP70,[40],25
